According to patent publication US20250352500A1, “USE OF PHENOLIC ACIDS DERIVATIVES IN TREATING ISCHEMIC STROKE” (LANZHOU UNIVERSITY, priority 2022, published 2025):

What was measured:
Assay type in all cases: in vivo, male C57/BL mice
[1] = tested on: TNF-α, IL-1β, IL-6, iNOS, and COX2; assay: Immunofluorescence of pro-inflammatory factors in brain tissue; settings: 72 h, P<0.001; for Number of pro-inflammatory factor-positive cells compared with MCAO group: three days of administration, compound 2 100 mg/kg, compound 1 50 mg/kg
Procedure: (§1) Grouping and administration method: Male C57/BL mice weighing 23±1 g were randomly divided into sham operation group (SHAM), model group (MCAO), compound 2 group (100 mg/kg), and compound 1 group (50 mg/kg), with 10 mice in each group. Mice in the SHAM group underwent vascular isolation, but no […] was administered, and no treatment was given before or after surgery. The model group mice were constructed with MCAO models and were not treated before and after surgery. The treatment group was treated with compound 2 or compound 1 on the basis of the model group. Mice with a neurological score of 0 after reperfusion and those that died before 72 hours post-surgery were excluded. The administration time for animal behavior tests was seven times at 0 h, 1 day, 2 days, 3 days, 4 days, 5 days, and 6 days after reperfusion, while the administration time for other experiments was three times at 0 h, 1 day, and 2 days after reperfusion. The drug was administered through the tail vein, and the sham operation group and model group were given equal amounts of saline.
To investigate the effect of compounds on the expression of inflammatory factors after ischemia-reperfusion, this study used immunofluorescence experiments to observe the expression of TNF-α, IL-1β, IL-6, iNOS, and COX2 proteins in brain tissue. RT-qPCR experiments were used to detect the mRNA gene expression of pro-inflammatory factors TNF-α, IL-1β, IL-6, iNOS, and COX2 in the sham operation group, model group, compound 2 group, and compound 1 group. The concentrations of TNF-α, IL-1β, and IL-6 in brain homogenate were detected by enzyme-linked immunosorbent assay (ELISA), and the expression level of TNF-α protein in brain tissue was detected by Western blot.
(§2) After 72 hours of ischemia-reperfusion, the expression changes of inflammatory factors such as TNF-α, IL-1β, IL-6, iNOS, and COX2 in brain regions were analyzed by immunofluorescence staining. […]

[2] = tested on: HIF-1α; assay: HIF-1α immunofluorescence in brain tissue; settings: 72 h ischemia-reperfusion, three days of administration; compound 2 100 mg/kg, compound 1 50 mg/kg; MCAO group 568±60; mean±SEM, n=3
Procedure: as §1, with “The administration time for animal behavior tests was seven times at 0 h, 1 day, 2 days, 3 days, 4 days, 5 days, and 6 days after reperfusion, while the administration time for other experiments was three times at 0 h, 1 day, and 2 days after reperfusion. The drug was administered through the tail vein, and the sham operation group and model group were given equal amounts of saline.” left out
After 72 hours of ischemia-reperfusion, the expression changes of the inflammatory factor HIF-1α in the brain region were analyzed by immunofluorescence staining. […] Compared with the compound 1 group, the number of HIF-1α-positive cells in the compound 2 group was lower (197±33 vs 250±54/mm^2, P<0.001). n=3, data are presented as mean±SEM, analyzed using one-way ANOVA, and subjected to Tukey's HSD test. *P<0.05, **P<0.01, ***P<0.001. ^#P<0.05, ^##P<0.01, ^###P<0.001. * indicates a comparison with the MCAO group, ^# indicates comparison with the compound 2 group.

[3] = tested on: HIF-1α; assay: RT-qPCR of HIF-1α mRNA in brain tissue; settings: 72 h; for HIF-1α mRNA expression level reduced compared with MCAO group: three days of administration, compound 2 100 mg/kg, compound 1 50 mg/kg
Procedure: as §1
HIF-1α is a sensitive regulator of oxygen homeostasis, rapidly inducing its expression after hypoxia-ischemia. It plays a wide range of roles in the pathophysiology of stroke, including neuronal survival, neuroinflammation, angiogenesis, glucose metabolism, and blood-brain barrier regulation. It can not only produce specific sensations in the case of hypoxia, but also facilitate the maintenance of oxygen homeostasis in the body. […]
After 72 hours of ischemia-reperfusion, the mRNA expression level of HIF-1α in brain tissue was detected and analyzed by RT-qPCR. […] Compared with the compound 1 group, the expression level of HIF-1α in the compound 2 group decreased by 53±11% (P<0.001). n=3, data are presented as mean±SEM, analyzed using one-way ANOVA, and subjected to Tukey's HSD test. *P<0.05, **P<0.01, ***P<0.001. ^#P<0.05, ^##P<0.01, ^###P<0.001. * indicates a comparison with the SHAM group, indicates a comparison with the Compound 2 group.

[4] = tested on: TNF-α; assay: TNF-α protein Western blot in brain tissue; settings: 72 h; for TNF-α protein expression reduced compared with MCAO group: three days of administration, compound 2 100 mg/kg, compound 1 50 mg/kg, P<0.001
Procedure: as §1
(§3) To investigate the effect of compounds on the expression of inflammatory factors after ischemia-reperfusion, this study used immunofluorescence experiments to observe the expression of TNF-α, IL-1β, IL-6, iNOS, and COX2 proteins in brain tissue. […] The concentrations of TNF-α, IL-1β, and IL-6 in brain homogenate were detected by enzyme-linked immunosorbent assay (ELISA), and the expression level of TNF-α protein in brain tissue was detected by Western blot.
After 72 hours of ischemia-reperfusion, the expression level of TNF-α protein in brain tissue was detected by Western blot. […] In this experiment, β-actin was used as an internal reference protein. n=3, data are presented as mean±SEM, analyzed with one-way ANOVA, and subjected to Tukey's HSD test. *P<0.05, **P<0.01, ***P<0.001. ^#P<0.05, ^##P<0.01, ^###P<0.001. * indicates a comparison with the SHAM group, ^# indicates a comparison with the compound 2 group.

[5] = tested on: TNF-α; assay: TNF-α immunofluorescence in brain tissue; settings: 72 h ischemia-reperfusion; compound 2 100 mg/kg, compound 1 50 mg/kg; MCAO group 361±48; mean±SEM, n=3
Procedure: as §1, with “The administration time for animal behavior tests was seven times at 0 h, 1 day, 2 days, 3 days, 4 days, 5 days, and 6 days after reperfusion, while the administration time for other experiments was three times at 0 h, 1 day, and 2 days after reperfusion. The drug was administered through the tail vein, and the sham operation group and model group were given equal amounts of saline.” left out
as §3, §2

[6] = tested on: TNF-α; assay: RT-qPCR of TNF-α mRNA in brain tissue; settings: 72 h, three days of administration, compound 2 100 mg/kg, compound 1 50 mg/kg, P<0.05
Procedure: as §1, with “The administration time for animal behavior tests was seven times at 0 h, 1 day, 2 days, 3 days, 4 days, 5 days, and 6 days after reperfusion, while the administration time for other experiments was three times at 0 h, 1 day, and 2 days after reperfusion. The drug was administered through the tail vein, and the sham operation group and model group were given equal amounts of saline.” left out
as §3
After 72 hours of ischemia-reperfusion, the mRNA expression levels of TNF-α, IL-1β, IL-6, iNOS, and COX2 in brain tissue were detected and analyzed by RT-qPCR. […]

O=C(O)c1cc(OP(=O)(O)O)ccc1OP(=O)(O)O [compound 2]
Density of pro-inflammatory factor-positive cells compared with the compound 1 group ([1]; compound 2 100 mg/kg vs compound 1 50 mg/kg): significantly reduced | Number of pro-inflammatory factor-positive cells compared with MCAO group [1]: significantly decreased | Number of HIF-1α-positive cells [2]: 197±33 /mm^2 | HIF-1α mRNA expression level decreased compared with the compound 1 group ([3]; compound 2 100 mg/kg vs compound 1 50 mg/kg, P<0.001): 53±11% | HIF-1α mRNA expression level reduced compared with MCAO group [3]: 75±17% | TNF-α protein expression decreased compared with the compound 1 group ([4]; compound 2 100 mg/kg vs compound 1 50 mg/kg, P<0.05): 31±20% | TNF-α protein expression reduced compared with MCAO group [4]: 40±12% | Number of TNF-α-positive cells [5]: 140±35 /mm^2 | TNF-α mRNA expression compared with MCAO group [6]: significantly reduced

O=C(O)c1cc(O)ccc1O [compound 1]
Number of pro-inflammatory factor-positive cells compared with MCAO group [1]: significantly decreased | Number of HIF-1α-positive cells [2]: 250±54 /mm^2 | HIF-1α mRNA expression level reduced compared with MCAO group [3]: 41±13% | TNF-α protein expression reduced compared with MCAO group [4]: 20±10% | Number of TNF-α-positive cells [5]: 244±36 /mm^2 | TNF-α mRNA expression compared with MCAO group [6]: significantly reduced
